Experimental data from patent US11254663B2 (BRISTOL-MYERS SQUIBB COMPANY, priority 2019, dated 2022).
pEC50: −log10 of the molar value.

target: FXR (Homo sapiens (Human), UniProt Q96RI1); assay: FXR EC50 (FXR agonist potency reported with each Example); format: cell-based
Sequence (Q96RI1 262-486): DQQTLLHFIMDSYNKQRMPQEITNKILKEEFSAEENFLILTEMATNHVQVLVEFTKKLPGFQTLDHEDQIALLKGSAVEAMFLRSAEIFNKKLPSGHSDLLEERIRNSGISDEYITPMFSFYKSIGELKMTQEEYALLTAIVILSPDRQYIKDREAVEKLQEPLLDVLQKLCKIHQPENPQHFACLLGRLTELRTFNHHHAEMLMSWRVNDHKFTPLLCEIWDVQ

Structure (SMILES) | pEC50
O=C(N(CC12CCC(c3noc(C(F)F)n3)(CC1)CC2)c1cccc(-c2nc(C3CC3)no2)c1)C12CC(F)(C1)C2 [Example 117, N-(3-(3-cyclopropyl-1,2,4-oxadiazol-5-yl)phenyl)-N-((4-(5-(difluoromethyl)-1,2,4-oxadiazol-3-yl)bicyclo[2.2.2]octan-1-yl)methyl)-3-fluorobicyclo[1.1.1]pentane-1-carboxamide] | 7.92
Cc1cnc(C23CCC(CN(C(=O)C4CCC(F)(F)C4)c4cccc(-c5nc(C6CC6)no5)c4)(CC2)CC3)o1 (stereo not shown) [Example 39, N-(3-(3-cyclopropyl-1,2,4-oxadiazol-5-yl)phenyl)-3,3-difluoro-N-((4-(5-methyloxazol-2-yl)bicyclo[2.2.2]octan-1-yl)methyl)cyclopentane-1-carboxamide] | 6.51
COCc1coc(-c2cccc(N(CC34CCC(c5nc(C6CC6)no5)(CC3)CC4)C(=O)C3CC(F)(F)C3)c2)n1 [Example 84, N-((4-(3-cyclopropyl-1,2,4-oxadiazol-5-yl)bicyclo[2.2.2]octan-1-yl)methyl)-3,3-difluoro-N-(3-(4-(methoxymethyl)oxazol-2-yl)phenyl)cyclobutane-1-carboxamide] | 6.02
COCc1coc(-c2cccc(N(CC34CCC(c5nc(C6CC6)no5)(CC3)CC4)C(=O)C34CC(F)(C3)C4)c2)n1 [Example 85, N-((4-(3-cyclopropyl-1,2,4-oxadiazol-5-yl)bicyclo[2.2.2]octan-1-yl)methyl)-3-fluoro-N-(3-(4-(methoxymethyl)oxazol-2-yl)phenyl)bicyclo[1.1.1]pentane-1-carboxamide] | 6.86
CC(C)c1nc(-c2cccc(N(CC34CCC(c5ccc(C(F)(F)F)cn5)(CC3)CC4)C(=O)C34CC(F)(C3)C4)c2)no1 [Example 187, 3-fluoro-N-(3-(5-isopropyl-1,2,4-oxadiazol-3-yl)phenyl)-N-((4-(5-(trifluoromethyl)pyridin-2-yl)bicyclo[2.2.2]octan-1-yl)methyl)bicyclo[1.1.1]pentane-1-carboxamide] | 6.22
O=C(C1CCC1)N(CC12CCC(c3nc(CC4CC4)no3)(CC1)CC2)c1cccc(-c2nc(C3CC3)no2)c1 [Example 71, N-(3-(3-cyclopropyl-1,2,4-oxadiazol-5-yl)phenyl)-N-((4-(3-(cyclopropylmethyl)-1,2,4-oxadiazol-5-yl)bicyclo[2.2.2]octan-1-yl)methyl)cyclobutanecarboxamide] | 6.39
CC1(c2nc(-c3cccc(N(CC45CCC(c6nc(C7CC7)no6)(CC4)CC5)C(=O)C45CC(F)(C4)C5)c3)no2)COC1 [Example 113, N-((4-(3-cyclopropyl-1,2,4-oxadiazol-5-yl)bicyclo[2.2.2]octan-1-yl)methyl)-3-fluoro-N-(3-(5-(3-methyloxetan-3-yl)-1,2,4-oxadiazol-3-yl)phenyl)bicyclo[1.1.1]pentane-1-carboxamide] | 6.92
CC(F)(F)c1nc(-c2cccc(N(CC34CCC(c5nc(C6CC6)no5)(CC3)CC4)C(=O)C34CC(F)(C3)C4)c2)no1 [Example 112, N-((4-(3-cyclopropyl-1,2,4-oxadiazol-5-yl)bicyclo[2.2.2]octan-1-yl)methyl)-N-(3-(5-(1,1-difluoroethyl)-1,2,4-oxadiazol-3-yl)phenyl)-3-fluorobicyclo[1.1.1]pentane-1-carboxamide] | 7.17
COc1ccc(C23CCC(CN(C(=O)C45CC(F)(C4)C5)c4cccc(-c5nc(C6CC6)no5)c4)(CC2)CO3)cc1 [Example 128, N-(3-(3-Cyclopropyl-1,2,4-oxadiazol-5-yl)phenyl)-3-fluoro-N-((1-(4-methoxyphenyl)-2-oxabicyclo[2.2.2]octan-4-yl)methyl)bicyclo[1.1.1]pentane-1-carboxamide] | 6.39
CC(C)(C)c1noc(C23CCC(CN(C(=O)C45CC(F)(C4)C5)c4cccc(-c5cnn(S(=O)(=O)C6CC6)c5)c4)(CC2)OC3)n1 [Example 208, N-((4-(3-(tert-butyl)-1,2,4-oxadiazol-5-yl)-2-oxabicyclo[2.2.2]octan-1-yl)methyl)-N-(3-(1-(cyclopropylsulfonyl)-1H-pyrazol-4-yl)phenyl)-3-fluorobicyclo[1.1.1]pentane-1-carboxamide] | 6.21
COc1cccc(-c2cccc(N(CC34CCC(c5nc(C)no5)(CC3)CC4)C(=O)C3CC(F)(F)C3)c2)c1 [Example 220, 3,3-Difluoro-N-(3′-methoxy-[1,1′-biphenyl]-3-yl)-N-((4-(3-methyl-1,2,4-oxadiazol-5-yl)bicyclo[2.2.2]octan-1-yl)methyl)cyclobutane-1-carboxamide] | 6.26
O=C(C1CC(F)(F)C1)N(CC12CCC(c3cc(C(F)(F)F)ccn3)(CC1)CC2)c1cccc(-c2nc(C3CC3)no2)c1 [Example 49, N-(3-(3-cyclopropyl-1,2,4-oxadiazol-5-yl)phenyl)-3,3-difluoro-N-((4-(4-(trifluoromethyl)pyridin-2-yl)bicyclo[2.2.2]octan-1-yl)methyl)cyclobutane-1-carboxamide] | 5.86
Cn1nc(C2CC2)cc1C12CCC(CN(C(=O)C34CC(F)(C3)C4)c3cccc(-c4noc(C(F)F)n4)c3)(CC1)CC2 [Example 164, N-((4-(3-cyclopropyl-1-methyl-1H-pyrazol-5-yl)bicyclo[2.2.2]octan-1-yl)methyl)-N-(3-(5-(difluoromethyl)-1,2,4-oxadiazol-3-yl)phenyl)-3-fluorobicyclo[1.1.1]pentane-1-carboxamide] | 6.98
Cc1cnc(C23CCC(CN(C(=O)C45CC(F)(C4)C5)c4cccc(-c5nc(C(F)F)co5)c4)(CC2)CC3)o1 [Example 45, N-(3-(4-(difluoromethyl)oxazol-2-yl)phenyl)-3-fluoro-N-((4-(5-methyloxazol-2-yl)bicyclo[2.2.2]octan-1-yl)methyl)bicyclo[1.1.1]pentane-1-carboxamide] | 6.59
N#CC1(c2ccc(C34CCC(CN(C(=O)C5CC(C(F)F)C5)c5cccc(-c6nc(C7CC7)no6)c5)(CC3)CO4)cc2)CC1 (stereo not shown) [Example 141, N-((1-(4-(1-Cyanocyclopropyl)phenyl)-2-oxabicyclo[2.2.2]octan-4-yl)methyl)-N-(3-(3-cyclopropyl-1,2,4-oxadiazol-5-yl)phenyl)-3-(difluoromethyl)cyclobutane-1-carboxamide] | 6.19
N#CC1(c2ccc(C34CCC(CN(C(=O)C5CC(C(F)F)C5)c5cccc(-c6nnc(C7CC7)o6)c5)(CC3)CO4)cc2)CC1 (stereo not shown) [Example 144, N-((1-(4-(1-Cyanocyclopropyl)phenyl)-2-oxabicyclo[2.2.2]octan-4-yl)methyl)-N-(3-(5-cyclopropyl-1,3,4-oxadiazol-2-yl)phenyl)-3-(difluoromethyl)cyclobutane-1-carboxamide] | 5.67
O=C(C1CC(F)(F)C1)N(CC12CCC(c3nc(CC4CC4)no3)(CC1)CC2)c1cccc(-c2nc(CC3CC3)no2)c1 [Example 63, N-((4-(3-(cyclopropylmethyl)-1,2,4-oxadiazol-5-yl)bicyclo[2.2.2]octan-1-yl)methyl)-N-(3-(3-(cyclopropylmethyl)-1,2,4-oxadiazol-5-yl)phenyl)-3,3-difluorocyclobutane-1-carboxamide] | 6.25

Second part, the compound after the results:

pEC50 | Structure (SMILES)
6.43 | O=C(N(CC12CCC(c3nc(C4CC4)no3)(CC1)OC2)c1cccc(-c2noc(C(F)F)n2)c1)C12CC(F)(C1)C2 [Example 204, N-((1-(3-cyclopropyl-1,2,4-oxadiazol-5-yl)-2-oxabicyclo[2.2.2]octan-4-yl)methyl)-N-(3-(5-(difluoromethyl)-1,2,4-oxadiazol-3-yl)phenyl)-3-fluorobicyclo[1.1.1]pentane-1-carboxamide]
7.43 | CC(C)(C)c1noc(C23CCC(CN(C(=O)C45CC(F)(C4)C5)c4cccc(-c5noc(C6CC6)n5)c4)(CC2)CC3)n1 [Example 171, N-((4-(3-(tert-butyl)-1,2,4-oxadiazol-5-yl)bicyclo[2.2.2]octan-1-yl)methyl)-N-(3-(5-cyclopropyl-1,2,4-oxadiazol-3-yl)phenyl)-3-fluorobicyclo[1.1.1]pentane-1-carboxamide]
5.36 | Cn1c(-c2cccc(N(CC34CCC(c5nc(C6CC6)no5)(CC3)CC4)C(=O)C34CC(F)(C3)C4)c2)nnc1C1CC1 [Example 132, N-((4-(3-cyclopropyl-1,2,4-oxadiazol-5-yl)bicyclo[2.2.2]octan-1-yl)methyl)-N-(3-(5-cyclopropyl-4-methyl-4H-1,2,4-triazol-3-yl)phenyl)-3-fluorobicyclo[1.1.1]pentane-1-carboxamide]
7.14 | CCCc1ncc(-c2cccc(N(CC34CCC(c5nc(C6CC6)no5)(CC3)CC4)C(=O)C34CC(F)(C3)C4)c2)o1 [Example 26, N-((4-(3-cyclopropyl-1,2,4-oxadiazol-5-yl)bicyclo[2.2.2]octan-1-yl)methyl)-3-fluoro-N-(3-(2-propyloxazol-5-yl)phenyl)bicyclo[1.1.1]pentane-1-carboxamide]
7.14 | CC(C)(C)c1noc(C23CCC(CN(C(=O)C45CC(F)(C4)C5)c4cccc(-c5nnc(C6CC6)o5)c4)(CC2)CC3)n1 [Example 153, N-((4-(3-(tert-butyl)-1,2,4-oxadiazol-5-yl)bicyclo[2.2.2]octan-1-yl)methyl)-N-(3-(5-cyclopropyl-1,3,4-oxadiazol-2-yl)phenyl)-3-fluorobicyclo[1.1.1]pentane-1-carboxamide]
7.48 | CC(C)(C)c1nc(C23CCC(CN(C(=O)C45CC(F)(C4)C5)c4cccc(-c5noc(C6(C)CC6)n5)c4)(CC2)CC3)no1 [Example 177, N-((4-(5-(tert-butyl)-1,2,4-oxadiazol-3-yl)bicyclo[2.2.2]octan-1-yl)methyl)-3-fluoro-N-(3-(5-(1-methylcyclopropyl)-1,2,4-oxadiazol-3-yl)phenyl)bicyclo[1.1.1]pentane-1-carboxamide]
7.80 | CC(C)(C)c1nc(C23CCC(CN(C(=O)C45CC(F)(C4)C5)c4cccc(-c5cnn(S(C)(=O)=O)c5)c4)(CC2)CC3)no1 [Example 194, N-((4-(5-(tert-butyl)-1,2,4-oxadiazol-3-yl)bicyclo[2.2.2]octan-1-yl)methyl)-3-fluoro-N-(3-(1-(methylsulfonyl)-1H-pyrazol-4-yl)phenyl)bicyclo[1.1.1]pentane-1-carboxamide]
7.13 | O=C(N(CC12CCC(c3nc(C4CC4)no3)(CC1)OC2)c1cccc(-c2noc(C3CC3)n2)c1)C12CC(F)(C1)C2 [Example 203]
